Results on four substances are retold here after paper PMC7954794, “Protein context shapes the specificity of SH3 domain-mediated interactions in vivo” (Nature Communications, 2021).

For assay [1], the system named is PAK1. Nature of the assay: Co-immunoprecipitation / Western blot NCK2-PAK1 (Fig. S6A-B). The class given is cell-based, human. As to conditions: Prey PAK1, sheet FigS6A-D. On the procedure: (§1) For the experiments with HEK293T cells (1 × 10cm confluent dish for WB and 3 × 15cm for MS), cells were washed in ice-cold PBS and lysed in lysis buffer (20 mM Tris-HCl pH 7.4, 150 mM NaCl, 1 mM EDTA, 0.5% sodium deoxycholate (Millipore Sigma), 10 mM beta-glycerophosphate (Millipore Sigma), 10 mM sodium pyrophosphate (Millipore Sigma), 50 mM NaF (Millipore Sigma)). Protease inhibitors were added to the lysis buffer (P8340 (Millipore Sigma) for WB and PMSF 1 mM, aprotinin 10 µg/mL, leupeptin 10 µg/mL and pepstatin 10 µg/mL (all Millipore Sigma) for MS). Cells were scraped in the lysis buffer and lysed at 4 °C for 20 min and centrifuged for another 20 min at 20,000 g at 4 °C. Bait proteins from the supernatant were immunoprecipitated for 90 min at 4 °C with FLAG-M2 agarose beads (Millipore Sigma) and washed three times in the lysis buffer. Beads were then used for WB or MS experiments (see below).
(§2) Protein extracts and affinity-purified baits from yeast and human lysed cells were migrated on 10% polyacrylamide gels. The separated proteins were then transferred to nitrocellulose membranes. Validation of correct protein loading was done with ponceau staining of the membranes. Before the primary antibody incubations, membranes were blocked in 5% milk. Protein signals were detected on an Amersham Imager 600RGB (GE Healthcare) following the incubation of the membranes with the appropriate HRP-conjugated secondary antibodies and the Clarity Western ECL Substrate (Bio-Rad). The antibodies used in this study are M2-HRP (A8592, Sigma, 1/50,000), rabbit anti-FLAG (F7425, Sigma, 1/1000), PAK (SC-881, Santa Cruz, 1/200), p130cas/BCAR1 (SC-860, Santa Cruz, 1/200), actin (Cell Signaling Technology, 1/2000), anti-mouse HRP (Cell Signaling Technology, 1/10,000) and anti-rabbit HRP (Cell Signaling Technology, 1/10,000). The quantification of the WB signals was performed with the Amersham Imager 600 analysis software (GE Healthcare).
(§3) Supplementary Fig. 6| NCK2 SH3 shuffling affects its interactions with PAK1 and P130CAS/BCAR1 in cells but only slightly alters the availability of the SH3 binding pockets in vitro. A, Western blot analysis of NCK2 SH3-shuffled proteins interaction with PAK1. Each bait is N-terminally fused to a 3XFLAG tag. Loading corresponds to Ponceau staining of the nitrocellulose membrane. Experiment was performed in four replicates in HEK293T cells. B, Western blot quantification of PAK1 co-immunoprecipitation with NCK2.
(§4) Average log2 ratio relative to the WT protein is shown (NCK2mut/NCK2WT, WT NCK2 log2 ratio = 0). Ratios from replicates were compared t o WT NCK2 via pairwise ANOVA statistical […]
(§5) bars indicate the SD. C, Western blot analysis of NCK2 SH3-shuffled proteins association with SH2 target P130CAS/BCAR1. The experiment was performed in four replicates in HEK293T cells stimulated with the tyrosine phosphatase inhibitor pervanadate. D, Quantification of the Western blot signals of P130CAS co-immunoprecipitation with NCK2 as in B,. The four ratios of the replicates were compared to WT NCK2 via pairwise ANOVA statistical test (p -values: […]
(1 picture or pasted object on this page, not shown here)
On the technique in general: A western blot detects proteins with antibodies after separation by electrophoresis.

The test system of assay [2] is P130CAS/BCAR1. Nature of the assay: Co-immunoprecipitation / Western blot NCK2-P130CAS/BCAR1 (Fig. S6C-D). In kind it is cell-based, human. As to conditions: Prey P130CAS, sheet FigS6A-D. On the procedure: Human embryonic kidney 293T cells (HEK293T, ATCC:CRL-3216) were grown in Dulbecco’s Modified Eagle’s medium (DMEM) high glucose complemented with 10% fetal calf serum under 5% CO2 at 37 °C. Transient expression of cDNA in cells was performed by polyethylenimine (PEI, Millipore Sigma) transfections. Enrichment of phospho-dependent PPIs was done by treating HEK293T cells with the tyrosine phosphatase inhibitor pervanadate, freshly made by mixing 4 mM orthovanadate (Millipore Sigma) with 30% H2O2 (Millipore Sigma) in water in a 200:1 volume ratio.
as §1, §2, §3, §4, §5

In assay [3] the test system is 575 putative partners (preys) of 22 WT SH3-containing proteins. Nature of the assay: DHFR-PCA on solid medium, WT and SH3-deleted baits (Fig. 1B). Set-up: key to Score: 0: SH3-independent; 1: SH3-dependent PPIs; 2: SH3-inhibited PPIs. In kind it is cell-based, Saccharomyces cerevisiae. As to conditions: for medrep (log2 median colony size normalized to plate background, PCA score): bait SLA1-3, DHFR-PCA, label = prey, Replicates 4 (2 for YCR009C, YDR388W, YIL033C); for Score: bait SLA1-3, label = prey. An excerpt: To assess the requirement of SH3 domains for PPIs in vivo, we first measured binary interactions between 22 WT SH3-containing proteins (Supplementary Fig. 1A) as baits and 575 putative partners from their interconnected signaling networks using the dihydrofolate reductase protein–fragment complementation assay (DHFR-PCA) in the budding yeast Saccharomyces cerevisiae. About 33% (202/607) of the PPIs detected were described before, mostly by direct methods (Supplementary Fig. 1B, C)[11]. We repeated the experiments with baits in which the SH3s were individually replaced with a flexible linker by genome editing (SH3 domain deletion/stuffing, Fig. 1A). The stuffer DNA sequence ([…]) codes for a small flexible poly-Gly with Ser peptide ([…]) that is inspired by previous experiments[12],[13]. About a third of the SH3-containing protein interactome is qualitatively or quantitatively SH3-dependent (171 PPIs out of 607, Fig. 1B and Supplementary Fig. 1B, C). We validated the vast majority of the quantitative changes in low-throughput experiments and excluded that this is simply due to changes in protein abundance in most cases (Supplementary Fig. 1D–G). SH3-binding motifs[14] are more frequent in the SH3-dependent PPI partners when compared to sequences from random proteins, SH3-independent PPI partners or PPI partners that are stronger or gained following SH3 deletions (p values = 1.5 × 10^−17, 0.0038 and 2.1 × 10^−08, respectively; Mann–Whitney test, one-tailed, Fig. 1C). The changes we measure are therefore enriched for PPIs that depend on the direct interactions of the domains with the PPI partners.
The complete list of strains, primers, and gRNAs used in this study can be found in Supplementary Tables 1–3. All constructed yeast strains were validated by polymerase chain reaction (PCR) and confirmed by Sanger sequencing of the locus of interest. Bait strains for the DHFR-PCA experiments were constructed as follows. The genes of interest were fused at their genomic 3′ end by replacing the stop codon with a linker ([…]), the DHFR F[1,2] followed by a smaller linker (GGGGS), a 1× FLAG tag ([…]) and the NATMX4 resistance cassette via homologous recombination (all amplified from pAG25-DHFR[1,2]-linker-FLAG). The set of 615 prey strains (DHFR F[3] fusions in the BY4742 background) were retrieved from the Yeast Protein Interactome Collection[43] with the exception of 73 that were reconstructed (Supplementary Tables 1 and 2). Knockout strains were taken from the yeast knockout collection except for ABP1, BEM1, BZZ1, and SLA1, which were reconstructed by replacing the ORFs with the NATMX4 resistance cassette by homologous recombination in the BY4741 background.
Yeast SH3 domain genomic sequences were replaced by CRISPR–Cas9 genome editing. Each SH3 domain (as defined by the SMART database V8.0 except for Ysc84 SH3 (as defined by PROSITE), see Source Data for all SH3 sequences and Supplementary Table 1 for primers used) was specifically targeted by one gRNA[46]. Yeast competent cells were co-transformed with a pCAS plasmid (Addgene plasmid 60847[47]) expressing both the gRNA of interest and Streptococcus pyogenes Cas9[46] and a donor DNA sequence (stuffer) with 60 bp homology arms surrounding the SH3 DNA sequence. The Stuffer DNA was either PCR amplified or digested from a plasmid. The stuffer DNA sequence ([…]) codes for a small flexible linker ([…]) inspired by protein linkers used in structural biology[12],[13]. This type of linker is frequently used for fusing proteins without affecting the structure of the linked proteins.
The overall DHFR-PCA pipeline is based on Tarassov et al.[43] and the procedures have also been published as a visualized protocol. The screens were performed with robotically manipulated pin tools (BM5-SC1, S&P Robotics Inc.). First, the preys were cherry-picked from 96-well plates to omnitrays in a 384 format on YPD + HPH solid media. […]

For assay [4], the system named is BUD14. Description: DHFR-PCA on solid medium, bait BUD14 (Fig. 1B). The class given is cell-based, Saccharomyces cerevisiae. As to conditions: bait BUD14, label = prey; for medrep (log2 median colony size normalized to plate background, PCA score): 4 replicates; for Ratio (SH3-deleted/WT medrep): only significant differences showed, PPIs completely lost have a ratio of 0.1 and the gained PPIs 2.5. From the text:
(§6) Supplement 41467_2021_21873_MOESM8_ESM.xlsx, sheet "Fig1B" | column: medsize; medrep; Ratio; Score

The subject of assay [5] is BOI2. Description: DHFR-PCA on solid medium, bait BOI2 (Fig. 1B). The class given is cell-based, Saccharomyces cerevisiae. The following applies: bait BOI2, label = prey; for medrep (log2 median colony size normalized to plate background, PCA score): 3-8 replicates.
Source text: as §6

In assay [6] the test system is BEM1-2. Nature of the assay: DHFR-PCA on solid medium, bait BEM1-2 (Fig. 1B). The class given is cell-based, Saccharomyces cerevisiae. As to conditions: bait BEM1-2, label = prey; 2-8 replicates.
Source text: as §6

Assay [7] relates to BBC1. Nature of the assay: DHFR-PCA on solid medium, bait BBC1 (Fig. 1B). The class given is cell-based, Saccharomyces cerevisiae. The following applies: bait BBC1, label = prey; 2-4 replicates.
Source text: as §6

In assay [8] the test system is ABP1. Nature of the assay: DHFR-PCA on solid medium, bait ABP1 (Fig. 1B). As to conditions: bait ABP1, label = prey; 2-4 replicates. The class given is cell-based, Saccharomyces cerevisiae.
Source text: as §6

The subject of assay [9] is BZZ1-1. Nature of the assay: DHFR-PCA on solid medium, bait BZZ1-1 (Fig. 1B). In kind it is cell-based, Saccharomyces cerevisiae. As to conditions: bait BZZ1-1, label = prey; 4 replicates. From the text: Supplement 41467_2021_21873_MOESM8_ESM.xlsx, sheet "Fig1B" | column: medsize; medrep; Score
The test system of assay [10] is BEM1-1. Description: DHFR-PCA on solid medium, bait BEM1-1 (Fig. 1B). In kind it is cell-based, Saccharomyces cerevisiae. As to conditions: bait BEM1-1, label = prey; for medrep (log2 median colony size normalized to plate background, PCA score): 2-8 replicates.
Source text: as §6

Assay [11] has as its system BOI1. Description: DHFR-PCA on solid medium, bait BOI1 (Fig. 1B). In kind it is cell-based, Saccharomyces cerevisiae. The following applies: bait BOI1, label = prey.
Source text: as §6

[12] abbreviates: average of R1-R4, SD in next column.
[13] abbreviates: only significant differences showed, PPIs completely lost have a ratio of 0.1 and the gained PPIs 2.5.

Consider NCK2 WT, for which the Log2 ratio average in [1] (setting [12]) and in [2] (setting [12]) was 0 each time. In addition, the “Log2 ratio on WT R1” value in [1] (replicate R1) and in assay [2] (replicate R1) was 0 each time. Besides, the “Ratio on WT R1” value in assay [1] (replicate R1) and in assay [2] (replicate R1) was 1 in each case. Also, the “Log2 ratio on WT R3” value in assay [1] (replicate R3) and in assay [2] (replicate R3) was 0 in each case. Further, the “Ratio on WT R3” value in assay [1] (replicate R3) and in assay [2] (replicate R3) was 1 throughout. Further, the “Log2 ratio on WT R4” value in [1] (replicate R4) and in assay [2] (replicate R4) was 0 each time. The “Ratio on WT R4” value in assay [1] (replicate R4) and in assay [2] (replicate R4) was 1 throughout.
For YBR234C, the “medrep (log2 median colony size normalized to plate background, PCA score)” value is given as 5.2 in assay [3]; 1.638 in [4]; 2.566 in assay [5]; 2.151 in [6]; 5.076 in assay [7]; 5.488 in [8]. The “medrep (log2 median colony size normalized to plate background, PCA score)” value in assay [9] was 4.45; in [10] it was 2.151. The Score in assay [3] is 0. The “Ratio (SH3-deleted/WT medrep)” value in [4] stood at 0.1.
“YCR088W (PWATAEYDYDAAEDNELTFVENDKIINIEFVDDDWWLGELEKDGSKGLFPSNYVSLGN)”: the “medrep (log2 median colony size normalized to plate background, PCA score)” value is reported as 4.931 in assay [3]; 2.0061 in assay [5]; 1.996 in assay [6]; 4.833 in assay [7]; 5.528 in [8]; 4.666 in assay [9]. For the same substance, the “medrep (log2 median colony size normalized to plate background, PCA score)” value in assay [10] worked out at 1.996. Further, the Score in [3] was 0. For the same substance, in assay [10] (setting [13]), the “Ratio (SH3-deleted/WT medrep)” value is 0.1.
As for YER155C, the entries for the “medrep (log2 median colony size normalized to plate background, PCA score)” value in assay [4], in [11] (3-8 replicates) and in [5] were 1.311, 1.496 and 1.649, respectively. Besides, the “Ratio (SH3-deleted/WT medrep)” value in assay [4], in [11] (setting [13]) and in assay [5] (setting [13]) was 0.1 throughout.
